According to patent publication US20250170103A1, “4-(6-OXO-2-(TRIFLUOROMETHYL)-3,6-DIHYDROCHROMENO[7,8-D]IMIDAZOL-8-YL)BENZONITRILE FOR USE IN THE TREATMENT OF DISEASES AND CONDITIONS ASSOCIATED WITH MOVEMENT DISORDERS” (OnTrack Therapeutics Limited, priority 2022, published 2025):

B1: BDNF: classical neurotrophic factor, used as an endogenous activator of the signalling pathway under investigation (protein, UniProt P23560 19-247, looked up)
Neurotrophic factor BDNF …: APMKEANIRGQGGLAYPGVRTHGTLESVNGPKAGSRGLTSLADTFEHVIEELLDEDQKVRPNEENNKDADLYTSRVMLSSQVPLEPPLLFLLEEYKNYLDAANMSMRVRRHSDPARRGELSVCDSISEWVTAADKKTAVDMSGGTVTVLEKVPVSKGQLKQYFYETKCNPMGYTKEGCRGIDKRHWNSQCRTTQSYVRALTMDSKKRIGWRFIRIDTSCVCTLTIKRGR

Tests used:
[1] = tested on: dopaminergic TH-positive neurons injured with MPP+; assay: MPP+ in vitro Parkinson's disease model, mitochondrial ROS in TH neurons at 4 hours (TH/ROS plate); assay type: cell-based, rat; conditions: CF3CN 10 nm to 1 μm, 1 h pre-incubation, MPP+ 4 μM, FIG. 1
Experimental: (§1) The ventral portion of the mesencephalic flexure, a region of the developing brain rich in dopaminergic neurons, was used for the cell preparations.
(§2) (solution at a final concentration of 0.05% trypsin and 0.02% EDTA). […] Cells were then mechanically dissociated by 3 passages through a 10 ml pipette. Cells were then centrifuged at 180×g for 10 min at +4° C. on a layer of BSA (3.5%) in L15 medium. […] Viable cells were counted in a Neubauer cytometer using the trypan blue exclusion test. […] Half of the medium was changed every 2 days with fresh medium.

[2] = tested on: dopaminergic TH-positive neurons injured with MPP+; assay: MPP+ in vitro Parkinson's disease model, TH/αSyn plate at 48 hours (α-syn, DA neurons, neurites); assay type: cell-based, rat; conditions: MPP+ 4 μM
Experimental: as §1, §2
The cells were washed twice in PBS, and then permeabilized.

[3] = tested on: primary SOD1 transgenic spinal cord motor neurons injured with glutamate; assay: In vitro ALS model: glutamate-injured primary spinal motor neurons (MAP2/TDP43, 24 hours); assay type: cell-based, rat; conditions: for number of motor neurons: FIG. 5
Experimental: Cells were mechanically dissociated by three forced passages through the tip of a 10-ml pipette. Cells were then centrifuged at 515×g for 10 min at 4° C. […] Viable cells were counted in a Neubauer cytometer, using the trypan blue exclusion test. […] The medium was changed every 2 days.

[4] = tested on: 5XFAD mice; conditions: repeated administration, WO2020/033604; cited from earlier work

Row | Molecule | reduction of mitochondrial stress (ROS in TH(+) neurons) [1] | level of neurites ([2]; CF3CN 1 nm to 1 μm, FIG. 4) | number of DA neurons ([2]; CF3CN 10 and 100 nm, FIG. 3) | level of α-syn ([2]; all dose levels (1 nM to 5 μM) except 10 μm, FIG. 2) | neurite network ([3]; CF3CN 10 and 100 nm, glutamate 5 μM 20 min, 24 hours, compared to the control, FIG. 6) | level of extranuclear TDP-43 versus the positive controls ([3]; CF3CN 10 nm and 100 nm, compared with Riluzole 5 μM and BDNF 50 ng/ml) | number of motor neurons ([3]; CF3CN 10 nm, 100 nm and 1 μm, glutamate 5 μM 20 min, 24 hours, compared to the control) | number of extranuclear TDP-43 ([3]; CF3CN all concentrations except the highest and the lowest (10 nM to 5 μM), glutamate 5 μM 20 min, 24 hours, FIG. 7) | synaptic loss [4] | number of motor neurons ([3]; positive controls: Riluzole 5 μM, BDNF 50 ng/ml, glutamate 5 μM 20 min, 24 hours, compared to the control)
1 | N#Cc1ccc(-c2cc(=O)c3ccc4[nH]c(C(F)(F)F)nc4c3o2)cc1 [CF3CN, 4-(6-oxo-2-(trifluoromethyl)-3,6-dihydrochromeno[7,8-d]imidazol-8-yl)benzonitrile] | statistically significantly reduced ROS | increase the level of neurites | increase the number of DA neurons | statistically significantly reduce the level of α-syn | increased the neurite network in a statistically significant manner | greater decrease in the level of extranuclear TDP-43 than the positive controls | statistically significant increase in the number of motor neurons | decreased the number of extranuclear TDP-43 in a statistically significant manner | prevent synaptic loss | 
2 | B1 |  |  |  |  |  |  |  |  |  | statistically significant increase in the number of motor neurons
